Patent US20230167088A1, “1-PYRAZINYLPYRAZOLYL-3-OXYALKYL ACIDS AND THEIR DERIVATIVES, AND THEIR USE FOR CONTROL OF UNDESIRED PLANT GROWTH” (BAYER AKTIENGESELLSCHAFT, priority 2020, published 2023)

Experiments:
ALOMY [1] = assay: Herbicidal post-emergence action 1a (greenhouse pots, visual rating); type: in vivo, Alopecurus myosuroides; conditions: rated visually about 3 weeks after treatment, 100% = plants have died, 0% = like control plants
Outline: (§1)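 Visual scoring versus untreated plants (100% = plants dead, 0% = as control) followed roughly 3 weeks in the greenhouse after treatment. Plants grown in sandy loam pots had been sprayed on green parts at the one-leaf stage, 2–3 weeks post-sowing, with aqueous WP/EC preparations containing 0.5% additive, 600 l/ha, at 320 and/or 80 g/ha.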

AVEFA [2] = assay: as above; type: in vivo, Avena fatua; conditions: rated visually about 3 weeks after treatment, 100% = plants have died, 0% = like control plants
Outline: as §1

ALOMY [3] = assay: Herbicidal pre-emergence action 2a (greenhouse pots, visual scoring); type: in vivo, Alopecurus myosuroides; conditions: dosage 320 g/ha, visual scoring after about 3 weeks
Outline: (§2)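 Seeds were sown in pots, covered with soil, and the compound (WP or EC formulation) was sprayed onto the soil surface as an aqueous suspension or emulsion with 0.5% additive at 600 l/ha water, at 320 g/ha and/or 80 g/ha. Greenhouse growth followed for about 3 weeks, then visual scoring against untreated controls.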

AVEFA [4] = assay: as above; type: in vivo, Avena fatua; conditions: dosage 320 g/ha, visual scoring after about 3 weeks
Outline: as §2

AMARE = assay: as above; type: in vivo, Amaranthus retroflexus; conditions: dosage 320 g/ha, visual scoring after about 3 weeks vs untreated controls
Outline: as §2

ECHCG = assay: Herbicidal pre-emergence action 2b (doubly sown, 1280 g/ha); type: in vivo, Echinochloa crus-galli; conditions: doubly sown pots, dosage 1280 g/ha, visual scoring after about 3 weeks
Outline: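 Sandy loam pots, one mono- or dicot species each, double sowing; seeds covered. Aqueous WP/EC spray + 0.5% additive, 600 L/ha, onto cover soil. GH, ~3 wk, visual % vs control.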

VIOTR = assay: Herbicidal post-emergence action 1a (greenhouse pots, visual rating); type: in vivo, Viola tricolor; conditions: visual rating about 3 weeks after treatment
Outline: as §1

DIGSA = assay: as above; type: in vivo, Digitaria sanguinalis; conditions: rated visually about 3 weeks after treatment, 100% = plants have died, 0% = like control plants
Outline: as §1

LOLRI = assay: as above; type: in vivo, Lolium rigidum; conditions: rated visually about 3 weeks after treatment, 100% = plants have died, 0% = like control plants
Outline: as §1

harmful plants = assay: Herbicidal post-emergence action 1a, summary across species; type: in vivo; conditions: Tables A1 to A15 (320 g/ha and/or 80 g/ha)
Procedure: a) Seeds of monocotyledonous and dicotyledonous weeds and crop plants are placed in sandy loam in plastic or organic plant pots, covered with soil and cultivated in a greenhouse under controlled growth conditions. 2 to 3 weeks after sowing, the test plants are treated at the one-leaf stage. The compounds of the invention, formulated in the form of wettable powders (WP) or as emulsion concentrates (EC), are then sprayed onto the green parts of the plants as aqueous suspension or emulsion with addition of 0.5% additive at a water application rate of 600 1/ha (converted). After the test plants have been kept in the greenhouse under optimum growth conditions for about 3 weeks, the activity of the preparations is rated visually in comparison to untreated controls. For example, 100% activity=the plants have died, 0% activity=like control plants.
Tables A1 to A15 below show the effects of selected compounds of the general formula (I) according to Tables 1 and 2 on various harmful plants and an application rate corresponding to 320 g/ha and/or 80 g/ha, which were obtained by the experimental procedure mentioned above.
For example, compound nos. I-05, I-07, I-08, I-10, I-12, I-16, I-17, I-22, I-36, I-37, I-39 and I-40 in the post-emergence method have very good action (80% to 100% herbicidal activity) against harmful plants such as Alopecurus myosuroides, Amaranthus retroflexus, Avena fatua, Lolium rigidum, Polygonum convolvulus, Setaria viridis, Veronica persica and Viola tricolor at an application rate of 0.32 kg of active substance per hectare.

SMILES	Post-emergence action against ALOMY in % (ALOMY [1]; Dosage 80 g/ha)	Post-emergence action against AVEFA in % (AVEFA [2]; Dosage 80 g/ha)	Pre-emergence action against ALOMY in % (ALOMY [3])	Pre-emergence action against AVEFA in % (AVEFA [4])	Pre-emergence action against AMARE in % (AMARE)	Pre-emergence action at 1280 g/ha against ECHCG in % (ECHCG)	Post-emergence action against ALOMY in % (ALOMY [1]; Dosage 320 g/ha)	Post-emergence action against VIOTR in % (VIOTR; dosage 320 g/ha)	Post-emergence action against AVEFA in % (AVEFA [2]; Dosage 320 g/ha)	Post-emergence action against DIGSA in % (DIGSA; Dosage 320 g/ha)	Post-emergence action against LOLRI in % (LOLRI; Dosage 320 g/ha)	Post-emergence action against VIOTR in % (VIOTR; dosage 80 g/ha)	herbicidal efficacy against harmful plants in the case of post-emergence treatment (in words) (harmful plants)	Post-emergence action against LOLRI in % (LOLRI; Dosage 80 g/ha)	Post-emergence action against DIGSA in % (DIGSA; Dosage 80 g/ha)
C[C@@H](Oc1nn(-c2cnccn2)c(-c2cccc(F)c2)c1Br)C(=O)O [Example I-48]	90%	80%	100%	90%	100%	100%	–	–	–	–	–	–	–	–	–
CCOC(=O)COc1nn(-c2cnccn2)c(-c2ccc(F)nc2)c1Br [Example I-52, ethyl {[4-bromo-5-(6-fluoropyridin-3-yl)-1-(pyrazin-2-yl)-1H-pyrazol-3-yl]oxy}acetate]	80%	–	90%	–	100%	–	90%	80%	–	–	–	–	–	–	–
COC(=O)C(C)Oc1nn(-c2cnccn2)c(-c2ccnc(F)c2)c1Br (racemic) [Example I-10]	90%	80%	100%	90%	90%	–	90%	100%	90%	80%	90%	90%	good herbicidal efficacy	–	–
COC(=O)[C@@H](C)Oc1nn(-c2cnccn2)c(-c2ccc(F)c(F)c2)c1C#N [Example I-46]	90%	80%	100%	90%	100%	100%	90%	–	80%	–	90%	–	–	90%	–
COC(=O)COc1nn(-c2cnccn2)c(-c2ccc(F)c(F)c2)c1Br [Example I-15]	80%	90%	90%	80%	100%	–	80%	90%	90%	90%	90%	90%	good herbicidal efficacy	90%	–
COC(=O)COc1nn(-c2cnccn2)c(-c2cncc(F)c2)c1Br [Example I-07]	90%	100%	100%	90%	100%	–	100%	90%	100%	90%	90%	80%	good herbicidal efficacy	80%	80%
COC(=O)[C@@H](C)Oc1nn(-c2cnccn2)c(-c2ccc(F)c(F)c2)c1Br [Example I-45]	90%	–	100%	80%	100%	100%	90%	90%	80%	–	90%	80%	good herbicidal efficacy	90%	–
COC(=O)[C@@H](C)Oc1nn(-c2cnccn2)c(-c2cncc(F)c2)c1C#N [Example I-40]	80%	–	100%	–	90%	100%	90%	80%	80%	80%	80%	–	good herbicidal efficacy	–	–
COC(=O)C(C)Oc1nn(-c2cnccn2)c(-c2cncc(F)c2)c1Br (racemic) [Example I-08]	100%	100%	100%	90%	100%	–	100%	90%	100%	80%	90%	90%	good herbicidal efficacy	–	–
CCOC(=O)COc1nn(-c2cnccn2)c(-c2ccccc2)c1Br [Example I-01]	–	–	80%	–	100%	100%	90%	90%	–	80%	90%	90%	good herbicidal efficacy	–	–
COC(=O)COc1nn(-c2cnccn2)c(-c2ccc(F)nc2)c1Br [Example I-11]	–	–	100%	–	90%	90%	100%	100%	–	–	–	90%	good herbicidal efficacy	–	–
